# Measured values: patent publication US20090176866A1, “Complexes having adjuvant activity” (priority 2004, published 2009)
# Legend:
# visceral leishmaniasis = conditions: intravenous, daily or every other day, 15-20 infusions at 0.75-1 mg/kg/day; cited from earlier work
# [1] = system: intracellular Leishmania mexicana amastigotes; assay: Inhibition of intracellular Leishmania mexicana amastigote growth in human monocyte derived macrophages (infection index); type: cell-based; conditions: 72 h at 32° C.
# Method: (§1) Leishmania mexicana amastigotes were used to infect human monocyte derived macrophages that were maintained in RPMI 1640 (Invitrogen) supplemented with 10% human serum (heat inactivated at 56° C. for 1 hour) and 200 IU/ml penicillin and 200 μg/ml streptomycin. The cells were plated at 10^6 cells/ml into Lab-Tek Chamber Slides (Nunc) and incubated at 37° C./5% CO2 for 3 days. The media was then aspirated from the chamber slides and an equal volume of fresh media added back in which the amastigote concentration had been adjusted to give a parasite:cell infection ratio of 5:1. The cells were then incubated at 32° C. for 20 h to enable infection of the macrophages to become established. Media was then aspirated from the chamber slides and replaced with doubling dilutions of the test compound. The cells were then incubated at 32° C. for 72 h. After washing with PBS, the chambers were detached, the slides allowed to dry and then fixed in methanol. Each slide was then stained with Giemsa and examined microscopically. A total of 250 cells were counted to determine the number of infected and uninfected cells.
# (§2) The infection index was calculated as the average number of parasites/cell multiplied by the percentage of infected cells.
# [2] = system: Leishmania donovani promastigotes; assay: Viability of Leishmania donovani promastigotes (MTT); type: cell-based; conditions: 24 h + 24 h MTT at 26° C.
# Method: (§3) Leishmania donovania promastigotes were used for these experiments. They were maintained in Schneider's Growth Media 199 supplemented with 15% fetal calf serum (heat inactivated at 56° C. for 1 hour) and gentamicin (1 mg/100 ml). The parasite concentration was adjusted to 2×10^6 parasites/ml. Doubling dilutions of the test compound were prepared at twice the desired final concentration in growth media. An equal volume of the drug and the parasite suspension were then mixed in a 96 well plate and incubated for 24 h at 26° C. At this time, MTT (5 mg/ml) was added and the plate incubated for a further 24 h at 26° C. The plate was then centrifuged (2000 g, 5 min), the supernatant discarded and the pellet resuspended in 100 μl DMSO. Absorbance was measured at 570 nm using a spectrophotometer. The results were expressed as the percentage viability of the promastigotes with 100% viability being determined using the OD of the untreated, replicating promastigotes in the control wells.
# [3] = system: Leishmania mexicana promastigotes; assay: Viability of Leishmania mexicana promastigotes (MTT); type: cell-based; conditions: 24 h + 24 h MTT at 26° C.
# Method: as §3, with “mexicana promastgotes” for “donovania promastigotes”, “Drosophila growth medium (Invitrogen)” for “Growth Media 199”
# human red blood cells = assay: Red blood cell lysis; type: cell-based; conditions: 24 h incubation; 3 donors
# Method: A 2% v/v solution of human red blood cells was prepared in RPMI 1640. […] A 1% solution of Triton X-100 was used as a positive reference for 100% cell lysis. Dextran and poly-L lysine were used as negative and positive controls respectively. An equal volume of the sample and red blood cells were aliquoted into a 96 well microbtre plate and incubated at 37° C. After 1 h and after 24 h, each sample was centrifuged (2,000 g, 10 min) and the supernatant added to a 96 well microtitre plate. The absorbance was measured at 490 nm using a spectrophotometer. The degree of lysis was expressed as a percentage of the 100% lysis caused by Triton X-100.
# Lyophilised amphotericin B-PMMA-Na was stored at 4° C. under argon for 4 months. It was also solubilised in 5% dextrose at a concentration of 1 mg/ml and stored at 4° C. for 7 months under argon.
# Freshly prepared, clinical grade amphotericin B was used as a reference for the comparison. Incubations were undertaken for 1 h and 6 h.
# [4] = system: Leishmania donovani amastigotes; assay: Mouse model of visceral leishmaniasis (liver parasite burden); type: in vivo, BALB/c mice
# Method: Leishmania donovani strain (MHOM/ET/67/L82) amastigotes were collected from the spleens of heavily infected donor Syrian Hamsters-Mesocritetus auratus. An inoculum containing 7.5-10×10^7 amastigotes/mL was prepared. Female BALB/c mice (20 g) that were specified pathogen free were infected intravenously with 200 μL (equivalent to 1.5-2×10^7 amastigotes) on day 0. The end point of infection was evaluated by microscopic reading on day 14 to check for the level of infection in one mouse, and on day 21 post-infection of Giemsa stained liver impressions to determine the total parasite burden.
# The following compounds were administered intravenously according to the following regimens:—
# There were 5 animals in each group. […] All drug preparations were filtered using a […] syringe filter. The intravenous volume of injection was 200 μL per injection.
# Groups of mice were weighed before and after treatment as a measure of toxicity and the percentage weight change noted. On day 21 after infection (which was 3 days after the completion of treatment), the parasite burden was determined microscopically from methanol fixed liver impression slides stained with 10% Giemsa. The number of amastigotes/500 liver cells were counted microscopically and the results expressed as a percentage of the untreated control.
# [5] = system: intracellular Leishmania donovani amastigotes; assay: Inhibition of intracellular Leishmania donovani amastigote growth in human monocyte derived macrophages (infection index); type: cell-based; conditions: 72 h at 32° C.
# Method: as §1, with “donovani” for “mexicana”
# as §2
compound,measurement,setting,value
"C[C@@H]1[C@H](O)[C@@H](C)/C=C/C=C/C=C/C=C/C=C/C=C/C=C/[C@H](O[C@@H]2O[C@H](C)[C@@H](O)[C@H](N)[C@@H]2O)C[C@@H]2O[C@](O)(C[C@@H](O)C[C@@H](O)[C@H](O)CC[C@@H](O)C[C@@H](O)CC(=O)O[C@H]1C)C[C@H](O)[C@H]2C(=O)O [clinical grade amphotericin B, amphotericin B]",Long-term cure rates,visceral leishmaniasis,97%
same,50% inhibition of intracellular amastigote growth,[1],0.14 µg/mL
same,90% inhibition of intracellular amastigote growth,[1],0.95 µg/mL
same,90% lethal dose (LD90),[2],1.91 µg/mL
same,90% lethal dose (LD90),[3],1.49 µg/mL
same,red cell lysis (toxicity),human red blood cells,100%
same,killing activity of Leishmania donovani amastigotes compared to the controls,"[4]; 1 mg/kg i.v. days 14, 16 and 18, liver, day 21, P<0.0001",significant killing activity
same,anti-leishmanial activities compared with each other,"[4]; clinical grade amphotericin B, Ambisome, amphotericin B-PMAA-Na (2 mg/kg), P<0.05 as printed",not significantly different from each other
same,50% inhibition of intracellular amastigote growth,[5],0.54 µg/mL
same,90% inhibition of intracellular amastigote growth,[5],2.31 µg/mL
